Data reported in US20230390247A1, “BIPHENYL PYRROLIDINE AND BIPHENYL DIHYDROIMIDAZOLE DERIVATIVES FOR INHIBITING ACTIVITY OF 5-HT7 SEROTONIN RECEPTOR, AND PHARMACEUTICAL COMPOSITION COMPRISING SAME AS ACTIVE INGREDIENT” (priority 2020, published 2023).

Legend:
Type in all cases: cell-based
5-HT7R [1] = target: T1, 5-HT7R (Homo sapiens (Human), UniProt P34969); test: cAMP assay (luminescence-based, GloSensor); details: HEK293 cells transfected with human 5-HT7R and GloSensor-22F
Procedure: For luminescence-based cAMP assay, HEK293 cells were cultured on a 150-mm dish. Prior to transfection, the culture medium was replaced from DMEM containing 10% FBS, 100 U/mL penicillin and 100 μg/mL streptomycin to DMEM containing 10% dialyzed FBS, 100 U/mL penicillin and 100 μg/mL streptomycin. 4 hours later, transfection was conducted using 10 μg of a human 5-HT7R plasmid and 10 μg of a GloSensor-22F plasmid (Promega). The transfected cells were prepared on a white, flat, clear-bottom, 384-well plate (Greiner) (15,000 cells/well, 20 μL/well). 6 hours later, after removing the culture medium, the cells were treated with 20 μL of a 3% Glosensor cAMP reagent containing luciferin in a 1×HBSS, […], pH 7.4 buffer. In addition, the compound of each of the examples was prepared at different concentrations in an assay buffer containing 0.1% bovine serum albumin. 30 minutes later, 10 μL of the compound solution was treated to the cells. After measuring luminescence using a Tecan microplate reader (Spark), IC50 value was obtained using the Prism 8.0 program (GraphPad Software).

5-HT7R [2] = target: T1, 5-HT7R; test: Tango assay (β-arrestin signaling system); details: HTLA cells transfected with 5-HT7R-TCS-tTA construct
Procedure: Tango assay was conducted using HTLA cells in order to investigate the activity of the β-arrestin signaling system. Prior to transfection, the culture medium was replaced from DMEM containing 10% FBS, 100 U/mL penicillin, 100 μg/mL streptomycin, 2 μg/mL puromycin and 100 μg/mL hygromycin B to DMEM containing 10% dialyzed FBS, 100 U/mL penicillin and 100 μg/mL streptomycin. 4 hours later, transfection was conducted using 20 μg of a 5-HT7R-TCS-tTA construct (5-HT7R Tango DNA). The transfected cells were prepared on a white, flat, clear-bottom, 384-well plate (Greiner) (15,000 cells/well, 20 μL/well) using DMEM containing 10% dialyzed FBS, 100 U/mL penicillin and 100 μg/mL streptomycin. 6 hours later, after removing the culture medium, the cells were treated with 10 μL of the compound solution. After culturing for 22 hours and removing the culture medium, the cells were treated with 20 μL of a BrightGlo reagent (Promega) diluted in a 1×HBSS, […], pH 7.4 buffer. After measuring luminescence using a Tecan microplate reader (Spark), IC50 value was obtained using the Prism 8.0 program (GraphPad Software).

5-HT7R [3] = target: T1, 5-HT7R; test: Schild plot for Tango assay; details: compounds at 5 μM, 10 μM and 30 μM with serotonin, read-out: pA2 (converted)
Procedure: Schild plots were constructed for the Tango assay in order to investigate the effect of the compounds on the activity of the β-arrestin signaling pathway. After culturing cells and replacing the culture medium as described in b) of Test Example 1, the cells were transfected and prepared on a plate. 6 hours later, the cells were treated with 10 μL of the solution of serotonin or the compounds at final concentrations of 5 μM, 10 μM and 30 μM. […] In addition, the pA2 value was obtained using the Excel software. The Schild plots and pA2 values of compound 23 and compound 30 according to the present disclosure are summarized in FIGS. 1A-1B, FIG. 2 and Table 8.

T1 sequence (P34969 whole entry): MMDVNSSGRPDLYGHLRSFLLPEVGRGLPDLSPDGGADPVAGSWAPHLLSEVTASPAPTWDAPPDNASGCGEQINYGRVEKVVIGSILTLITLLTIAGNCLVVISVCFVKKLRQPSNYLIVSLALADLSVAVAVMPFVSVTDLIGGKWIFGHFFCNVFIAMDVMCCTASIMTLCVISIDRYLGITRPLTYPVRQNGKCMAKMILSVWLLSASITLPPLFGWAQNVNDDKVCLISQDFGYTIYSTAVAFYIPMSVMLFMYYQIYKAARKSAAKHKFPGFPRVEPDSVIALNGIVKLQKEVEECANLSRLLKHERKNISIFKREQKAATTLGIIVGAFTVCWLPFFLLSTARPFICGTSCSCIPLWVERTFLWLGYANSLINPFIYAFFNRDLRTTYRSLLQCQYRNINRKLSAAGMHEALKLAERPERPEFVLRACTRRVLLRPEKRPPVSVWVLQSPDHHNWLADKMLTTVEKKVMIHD

Row | SMILES | inhibition at 10 µM (5-HT7R [1]) [%] | IC50 (5-HT7R [1]) [µM] | inhibition at 10 µM (5-HT7R [2]) [%] | IC50 (5-HT7R [2]) [µM] | Kb (5-HT7R [3]) [µM]
1 | c1ccc(-c2cccc(C3=NCCN3)c2)cc1 [Compound 23, 2-([1,1′-biphenyl]-3-yl)-4,5-dihydro-1H-imidazole] | 83.3 | 5.1 | 44.2 | 47.9 | 5.75
2 | COc1ccccc1-c1cccc(C2=NCCN2)c1 [Compound 30, 2-(2′-methoxy-[1,1′-biphenyl]-3-yl)-4,5-dihydro-1H-imidazole] | 94.1 | 2.58 | 40.6 | 39.8 | 1.26
3 | Cc1ccc(-c2cc(C3=NCCN3)ccc2Cl)cc1 [Compound 40, 2-(6-chloro-4′-methyl-[1,1′-biphenyl]-3-yl)-4,5-dihydro-1H-imidazole] | 48.9 |  | 31.3 |  | 
4 | COc1ccccc1-c1cc(C2=NCCN2)ccc1Cl [Compound 41, 2-(6-chloro-2′-methoxy-[1,1′-biphenyl]-3-yl)-4,5-dihydro-1H-imidazole] | 44.3 |  | 27.7 |  | 
5 | COc1cccc(-c2cc(C3=NCCN3)ccc2Cl)c1 [Compound 42, 2-(6-chloro-3′-methoxy-[1,1′-biphenyl]-3-yl)-4,5-dihydro-1H-imidazole] | 49.8 |  | 23.4 |  | 
6 | COc1ccc(-c2cc(C3=NCCN3)ccc2Cl)cc1 [Compound 43, 2-(6-chloro-4′-methoxy-[1,1-biphenyl]-3-yl)-4,5-dihydro-1H-imidazole] | 36.8 |  | 21.5 |  | 
7 | COc1cccc(OC)c1-c1cc(C2=NCCN2)ccc1Cl [Compound 44, 2-(6-chloro-2′,6′-dimethoxy-[1,1′-biphenyl]-3-yl)-4,5-dihydro-1H-imidazole] | 48.4 |  | 9.8 |  | 
